Source: patent US20220395464A1, “ORALLY ADMINISTERED SOLID DOSAGE FORM DRUG” (ASCENTAWITS PHARMACEUTICALS, LTD., priority 2019, published 2022)
Values after ≈ are worked out from the molar mass of the structure shown. “Also recorded” adds a separate entry of the source. Like-named read-outs stand apart in the source and are kept apart here.

Assay: Solubility study of AST-3424 (shaking at 25° C., HPLC content)
Assay type: physicochemical
Conditions: for solubility / solubility at 1 h / solubility at 4 h / solubility at 8 h / solubility at 24 h / solubility at 48 h: thermodynamic from solid; for solubility at 1 h / solubility at 4 h / solubility at 8 h / solubility at 24 h / solubility at 48 h: read-out: Content (solubility test)
Description: An appropriate amount of AST-3424 (hereinafter called active pharmaceutical ingredients or API) was taken and placed in a suitable container containing 40 ml of the mentioned-above solutions (20 ml for organic solvents) respectively until excess oil droplets of AST-3424 existed in the solution.
Samples were put in a constant temperature shaking incubator at 25° C. and shaken at a proper speed (100 rpm). The samples were taken and checked pH values at each appointed time as specified in Table 1. Then, the samples were centrifuged (1000 rpm, 10 minutes), and added the corresponding solution or organic solvent (to dissolve the API for solubility study) to dilute to an appropriate concentration for HPLC analysis, so as to obtain solubility data. It should be noted that the dilution ratio after test was accurately recorded.
In the solubility study, for a determination of sample contents, 1 ml of culture medium were measured respectively, and then centrifuged at 1000 rpm for 10 minutes. Subnatant after centrifugation were collected respectively for HPLC analysis. In the solution stability study, the samples may be provided directly for HPLC analysis.
The contents were determined by a HPLC method: AST-3424 was used as an external standard for quantification.
According to the solution stability results, AST-3424 is very unstable in the acetate buffer of pH 4.5. Therefore, the phosphate buffer of pH 6.8, the phosphate buffer of pH 7.4, the alkaline borate buffer of pH 10.0, and the purified water were selected for the solubility study. An appropriate amount of AST-3424 was weighed and placed in 40 ml of medium (8 ml ethanol/propylene glycol (50:50, v/v) was used), until excess flocci was present in the solution.

[1] = alkaline borate buffer, 25 °C, pH 10, aqueous buffer, pH 10.0 (Alkaline borate buffer)
[2] = ethanol/propylene glycol (50:50, v/v), 25 °C, organic solvent or mixture, Ethanol/Propylene glycol (50:50, v/v)
[3] = phosphate buffer of pH 6.8, 25 °C, pH 6.8, aqueous buffer, pH 6.8 (Phosphate buffer)
[4] = phosphate buffer of pH 7.4, 25 °C, pH 7.4, aqueous buffer, pH 7.4 Phosphate buffer
[5] = phosphate buffer, 25 °C, pH 7.4, aqueous buffer, pH 7.4 Phosphate buffer
[6] = purified water, 25 °C, water, Purified water

For `C[C@H](OP(=O)(N1CC1)N1CC1)c1ccc([N+](=O)[O-])c(Oc2cccc(C(=O)N(C)C)c2)c1` [AST-3424, (S)-1-(3-(3-N,N-Dimethylaminocarbonyl)phenoxy-4-nitrophenyl)-1-ethyl-N,N′-bis(ethylene) phosphoramidate], the “Solubility, descriptive terms” value (Purified water) was “Sparingly soluble”, the solubility [1] was roughly 23 mg/mL (≈ 50 mM) and the solubility at 1 h [1] was 23.5 mg/mL (≈ 51 mM). It also gave a solubility at 4 h [1] of 23.6 mg/mL (≈ 51.2 mM), a solubility at 8 h [1] of 23.5 mg/mL (≈ 51 mM) and a solubility at 24 h [1] of 23.5 mg/mL (≈ 51 mM). The solubility at 48 h [1] was 23.7 mg/mL (≈ 51.4 mM), the “Solubility, descriptive terms” value (ethanol/propylene glycol (50:50, v/v)) was “easily soluble; also recorded: Freely soluble (FS)” and the solubility at 1 h [2] was 271 mg/mL (≈ 589 mM). For the same compound, the solubility at 4 h [2] was 302 mg/mL (≈ 657 mM), the solubility at 8 h [2] was 301 mg/mL (≈ 654 mM) and the solubility at 24 h [2] was 299 mg/mL (≈ 649 mM). The solubility at 48 h [2] was 274 mg/mL (≈ 595 mM), the solubility (ethanol/propylene glycol (50:50, v/v), 25 °C, organic solvent or mixture, ethanol/propylene glycol (50:50, v/v)) was greater than 270 mg/mL and the “Solubility, descriptive terms” value (pH 6.8 (Phosphate buffer)) was “Sparingly soluble”. The “Solubility, descriptive terms” value (pH 7.4 (Phosphate buffer)) was “Sparingly soluble”, the “Solubility, descriptive terms” value (pH 10.0 (Alkaline borate buffer)) was “Sparingly soluble” and the solubility at 1 h [3] was 23 mg/mL (≈ 50 mM). For the same compound, the solubility at 4 h [3] was 22.9 mg/mL (≈ 49.8 mM), the solubility at 8 h [3] was 23 mg/mL (≈ 50 mM) and the solubility at 24 h [3] was 22.6 mg/mL (≈ 49.1 mM). The solubility at 48 h [3] was 22.1 mg/mL (≈ 47.9 mM), the solubility at 1 h [4] was 23.7 mg/mL (≈ 51.4 mM) and the solubility at 4 h [4] was 23.5 mg/mL (≈ 51 mM). For the same compound, the solubility at 48 h [4] was 23.4 mg/mL (≈ 50.8 mM), the solubility (phosphate buffer, 25 °C, pH 6.8, aqueous buffer, pH 6.8 (Phosphate buffer)) was roughly 23 mg/mL (≈ 50 mM) and the solubility (phosphate buffer, 25 °C, pH 7.4, aqueous buffer, pH 7.4 (Phosphate buffer)) was roughly 23 mg/mL (≈ 50 mM). The solubility at 8 h [5] was 23.6 mg/mL (≈ 51.2 mM), the solubility at 24 h [5] was 23.7 mg/mL (≈ 51.4 mM) and the solubility (purified water, 25 °C, water) was roughly 20 mg/mL (≈ 43.4 mM). The solubility at 1 h [6] was 20.9 mg/mL (≈ 45.4 mM), the solubility at 4 h [6] was 20.1 mg/mL (≈ 43.7 mM) and the solubility at 8 h [6] was 19.7 mg/mL (≈ 42.7 mM). It also gave a solubility at 24 h [6] of 18.8 mg/mL (≈ 40.9 mM) and a solubility at 48 h [6] of 17.8 mg/mL (≈ 38.6 mM).
